Where a SMILES comes first, the peptide text is derived from it. Bridges are numbered along the chain shown (N, C = ends). [ ]: non-standard residue; d: D form. Nle(6-COOH) = N[C@@H](CCCCC(=O)O)C(=O)O; Nle = CCCC[C@H](N)C(=O)O
Assays:
Type in all cases: cell-based
[1] = Antagonist activity at rat alpha6alpha3beta4 nAChR expressed in Xenopus laevis oocytes assessed as inhibition of Ach-induced response at -70 mV holding potential by two electrode voltage-clamp assay
[2] = target: T1, Neuronal acetylcholine receptor; alpha3/beta2 (Rattus norvegicus) (UniProt P04757+P12390); assay: Antagonist activity at rat alpha3beta2 nACHR expressed in Xenopus laevis oocytes assessed as Ach-induced current amplitude at 10 nM at -70 mV holding potential by two electrode voltage-clamp assay relative to control
[3] = target: nicotinic acetylcholine receptor alpha6/alpha3/beta2/beta3 (Rattus norvegicus, UniProt P04757+P12390+P12391+P43143); assay: Antagonist activity at rat alpha6alpha3beta2beta3 nAChR expressed in Xenopus laevis oocytes assessed as Ach-induced current amplitude at 10 nM at -70 mV holding potential by two electrode voltage-clamp assay relative to control
[4] = target: T1, Neuronal acetylcholine receptor; alpha3/beta2 (Rattus norvegicus); assay: Antagonist activity at rat alpha3beta2 nACHR expressed in Xenopus laevis oocytes assessed as Ach-induced current amplitude at 100 nM at -70 mV holding potential by two electrode voltage-clamp assay relative to control; parameters: scale not given: the % may be the effect or the level left

Chain of nicotinic acetylcholine receptor alpha6/alpha3/beta2/beta3 (P04757 whole entry): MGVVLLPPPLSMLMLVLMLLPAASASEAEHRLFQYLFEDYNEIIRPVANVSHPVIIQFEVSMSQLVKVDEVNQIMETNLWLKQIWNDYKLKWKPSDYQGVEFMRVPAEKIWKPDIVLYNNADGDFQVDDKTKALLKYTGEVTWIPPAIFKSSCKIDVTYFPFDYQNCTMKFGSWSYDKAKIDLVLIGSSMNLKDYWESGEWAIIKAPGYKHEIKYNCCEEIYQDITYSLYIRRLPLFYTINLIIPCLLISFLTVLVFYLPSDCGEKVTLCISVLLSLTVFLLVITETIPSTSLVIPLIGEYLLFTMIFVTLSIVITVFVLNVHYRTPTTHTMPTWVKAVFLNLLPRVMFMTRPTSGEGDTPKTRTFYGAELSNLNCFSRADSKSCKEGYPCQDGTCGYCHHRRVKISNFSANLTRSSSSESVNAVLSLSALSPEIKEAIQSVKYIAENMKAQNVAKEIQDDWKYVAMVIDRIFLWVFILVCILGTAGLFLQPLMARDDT
Chain of nicotinic acetylcholine receptor alpha6/alpha3/beta2/beta3 (P12390 whole entry): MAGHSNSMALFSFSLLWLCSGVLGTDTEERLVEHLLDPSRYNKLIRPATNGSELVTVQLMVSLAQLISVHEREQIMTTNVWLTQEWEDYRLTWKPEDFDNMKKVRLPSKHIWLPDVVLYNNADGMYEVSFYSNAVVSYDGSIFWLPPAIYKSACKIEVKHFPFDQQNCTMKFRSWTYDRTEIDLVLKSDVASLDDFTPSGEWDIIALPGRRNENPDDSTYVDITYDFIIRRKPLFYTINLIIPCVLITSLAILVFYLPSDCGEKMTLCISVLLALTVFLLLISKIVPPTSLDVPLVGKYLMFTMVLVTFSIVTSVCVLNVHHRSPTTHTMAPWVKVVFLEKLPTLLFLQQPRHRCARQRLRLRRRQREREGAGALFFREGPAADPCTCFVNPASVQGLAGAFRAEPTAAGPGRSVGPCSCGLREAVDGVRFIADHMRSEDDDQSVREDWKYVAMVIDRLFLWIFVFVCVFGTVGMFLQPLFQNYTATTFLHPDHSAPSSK
Chain of nicotinic acetylcholine receptor alpha6/alpha3/beta2/beta3 (P12391 whole entry): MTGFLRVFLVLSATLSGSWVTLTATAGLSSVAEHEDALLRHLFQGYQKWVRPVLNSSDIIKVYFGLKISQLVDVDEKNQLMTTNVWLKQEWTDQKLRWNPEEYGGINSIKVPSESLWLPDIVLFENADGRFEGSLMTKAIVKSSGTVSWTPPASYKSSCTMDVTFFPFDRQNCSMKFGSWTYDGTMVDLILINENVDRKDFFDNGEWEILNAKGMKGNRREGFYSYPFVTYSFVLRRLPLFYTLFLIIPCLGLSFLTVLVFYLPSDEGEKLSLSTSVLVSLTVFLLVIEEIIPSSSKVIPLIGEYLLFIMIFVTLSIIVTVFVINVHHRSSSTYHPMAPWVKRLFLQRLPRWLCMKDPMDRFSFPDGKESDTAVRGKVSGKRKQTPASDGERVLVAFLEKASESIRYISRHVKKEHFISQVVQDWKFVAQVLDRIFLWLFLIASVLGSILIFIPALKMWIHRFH
Chain of nicotinic acetylcholine receptor alpha6/alpha3/beta2/beta3 (P43143 whole entry): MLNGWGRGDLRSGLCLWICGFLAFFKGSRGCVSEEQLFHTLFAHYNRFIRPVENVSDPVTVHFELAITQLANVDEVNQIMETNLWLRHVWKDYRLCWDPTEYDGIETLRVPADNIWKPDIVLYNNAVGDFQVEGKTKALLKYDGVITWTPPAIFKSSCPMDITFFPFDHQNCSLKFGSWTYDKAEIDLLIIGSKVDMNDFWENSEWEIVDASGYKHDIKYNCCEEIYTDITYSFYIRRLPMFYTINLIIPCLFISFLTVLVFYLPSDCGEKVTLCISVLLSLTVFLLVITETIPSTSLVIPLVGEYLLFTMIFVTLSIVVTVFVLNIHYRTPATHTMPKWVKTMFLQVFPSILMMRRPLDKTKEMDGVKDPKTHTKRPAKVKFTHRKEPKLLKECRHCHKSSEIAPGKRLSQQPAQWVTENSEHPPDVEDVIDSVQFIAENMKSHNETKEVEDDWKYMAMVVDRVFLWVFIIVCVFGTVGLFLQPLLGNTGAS

| SMILES | IC50 [1] [nM] | inhibition [2] [%] | inhibition at 0.01 µM [3] [%] | Activity [4] [%] |
| --- | --- | --- | --- | --- |
| CC[C@H](C)[C@@H]1NC(=O)[C@H](CCC(=O)O)NC(=O)[C@@H]2CCCN2C(=O)[C@H](Cc2cnc[nH]2)NC(=O)[C@H](CCCCC(=O)O)NC(=O)[C@H]([C@@H](C)CC)NC(=O)[C@H](Cc2cnc[nH]2)NC(=O)[C@@H]2CSSC[C@H](NC(=O)CN)C(=O)N[C@@H](CSSC[C@@H](C(N)=O)NC1=O)C(=O)N[C@@H](CO)C(=O)N[C@@H](Cc1cnc[nH]1)C(=O)N1CCC[C@H]1C(=O)N[C@@H](C)C(=O)N2 (H-GCCSHPACHI[Nle(6-COOH)]HPEIC-NH2; disulfide 2-8, 3-16) | 77.3 |  |  |  |
| CC[C@H](C)[C@@H]1NC(=O)[C@H](Cc2cnc[nH]2)NC(=O)[C@@H]2CSSC[C@H](NC(=O)CN)C(=O)N[C@@H](CSSC[C@@H](C(N)=O)NC(=O)[C@H](CC(C)C)NC(=O)[C@H](CCC(=O)O)NC(=O)[C@@H]3CCCN3C(=O)[C@H](Cc3cnc[nH]3)NC(=O)[C@H](CCCCC(=O)O)NC1=O)C(=O)N[C@@H](CO)C(=O)N[C@@H](Cc1cnc[nH]1)C(=O)N1CCC[C@H]1C(=O)N[C@@H](C)C(=O)N2 (H-GCCSHPACHI[Nle(6-COOH)]HPELC-NH2; disulfide 2-8, 3-16) | 43.1 |  |  |  |
| CCCC[C@@H]1NC(=O)[C@H](Cc2cnc[nH]2)NC(=O)[C@@H]2CSSC[C@H](NC(=O)CN)C(=O)N[C@@H](CSSC[C@@H](C(N)=O)NC(=O)[C@H]([C@@H](C)CC)NC(=O)[C@H](CCC(=O)O)NC(=O)[C@@H]3CCCN3C(=O)[C@H](Cc3cnc[nH]3)NC(=O)[C@H](CCCCC(=O)O)NC1=O)C(=O)N[C@@H](CO)C(=O)N[C@@H](Cc1cnc[nH]1)C(=O)N1CCC[C@H]1C(=O)N[C@@H](C)C(=O)N2 (H-GCCSHPACH[Nle][Nle(6-COOH)]HPEIC-NH2; disulfide 2-8, 3-16) | 205 | 8 | 90 | 2 |
| CCCC[C@@H]1NC(=O)[C@H](Cc2cnc[nH]2)NC(=O)[C@@H]2CSSC[C@H](NC(=O)CN)C(=O)N[C@@H](CSSC[C@@H](C(N)=O)NC(=O)[C@H](CC(C)C)NC(=O)[C@H](CCC(=O)O)NC(=O)[C@@H]3CCCN3C(=O)[C@H](Cc3cnc[nH]3)NC(=O)[C@H](CCCCC(=O)O)NC1=O)C(=O)N[C@@H](CO)C(=O)N[C@@H](Cc1cnc[nH]1)C(=O)N1CCC[C@H]1C(=O)N[C@@H](C)C(=O)N2 (H-GCCSHPACH[Nle][Nle(6-COOH)]HPELC-NH2; disulfide 2-8, 3-16) | 120 |  |  |  |
